The source of these data is ChEMBL document CHEMBL4385613, “Discovery of Conformational Control Inhibitors Switching off the Activated c-KIT and Targeting a Broad Range of Clinically Relevant c-KIT Mutants” (J Med Chem, 2019).

One may read the GI50 as the concentration giving 50% growth inhibition. For orientation: IC50 means the concentration at which inhibition is half-maximal.

The source made the active and inactive calls. No cut-off for these calls is given here.

The test system of one assay is GISTT1. The experiment in a line: Antiproliferative activity against human GISTT1 cells harboring heterozygous V560-Y578 del mutation assessed as reduction in cell viability by methylene blue staining based assay. It counts as functional.
With `CCc1cc(NC(=O)Nc2ccc(-c3cnc(Nc4cc(N5CCN(CCO)CC5)ncn4)s3)cc2)no1`, the GI50 stood at 3.3 nM.
On the same count and under the same terms, under `CCc1cc(NC(=O)Nc2ccc(-c3cnc(Nc4cc(N5CCN(CC)CC5)nc(C)n4)s3)cc2)no1` stands 3.2 nM; under `CCc1cc(NC(=O)NCCCc2cnc(Nc3cc(N4CCN(CC)CC4)nc(C)n3)s2)no1`, 10 nM; under `CCc1cc(NC(=O)Nc2ccc(-c3sc(Nc4cc(N5CCN(CC)CC5)ncn4)nc3C)cc2)no1`, 3.3 nM.
On the same count and under the same terms, under `CCc1cc(NC(=O)Nc2ccc(-c3cnc(Nc4nc(C)nc(N5CCN(CC)CC5)n4)s3)cc2)no1` stands 13 nM.
Still for that read-out and setting: under `CCN1CCN(c2cc(Nc3ncc(-c4ccc(NC(C)=O)cc4)s3)ncn2)CC1` stands 25 nM.
Regarding `CCN1CCN(c2cc(Nc3ncc(-c4ccc(NS(=O)(=O)c5ccccc5)cc4)s3)nc(C)n2)CC1`, the GI50 stood at 42 nM.
With `CCN(CC)CCNC(=O)c1c(C)[nH]c(/C=C2\C(=O)Nc3ccc(F)cc32)c1C` [SUNITINIB], the GI50 is 38 nM.
On the same count and under the same terms, under `CCc1cc(NC(=O)N2CC=C(c3cnc(Nc4cc(N5CCN(CC)CC5)nc(C)n4)s3)CC2)no1` stands 4.9 nM; under `CCc1cc(NC(=O)Nc2ccc(-c3csc(Nc4cc(N5CCN(CC)CC5)nc(C)n4)n3)cc2)no1`, above 1000 nM.
Take `CCc1cc(NC(=O)Nc2ccc(-c3cnc(Nc4cc(N5CCC(N)C5)nc(C)n4)s3)cc2)no1` (configuration not stated): the GI50 was found to be 6.4 nM.
The same measure, in the same setting: under `CCc1cc(NC(=O)Nc2ccc(-c3cnc(Nc4cc(N5CCN(CC)CC5)ncn4)s3)cn2)no1` stands 1 nM; under `CCN1CCN(c2cc(Nc3ncc(-c4ccc(NC(N)=O)cc4)s3)ncn2)CC1`, 86 nM.
Consider `CCc1cc(NC(=O)NCC#Cc2cnc(Nc3cc(N4CCN(CC)CC4)ncn3)s2)no1`, for which the concentration for 50% growth inhibition (GI50) was determined as 9.9 nM.
Take `Cc1nc(Nc2ncc(-c3ccc(NC(=O)Nc4ccccc4)cc3)s2)cc(N2CCN(C)CC2)n1`: the GI50 was found to be 5.4 nM.

A further assay has as its system GIST882. The experiment in a line: Antiproliferative activity against human GIST882 cells harboring c-KIT exon 13 homozygous primary K642E mutant assessed as reduction in cell viability by MTS assay. It counts as functional. (In general: Tetrazolium dyes change colour on reduction, which living cells bring about.)
For `CCN(CC)CCNC(=O)c1c(C)[nH]c(/C=C2\C(=O)Nc3ccc(F)cc32)c1C` [SUNITINIB], the GI50 was 64 nM.

The test system of a further assay is GIST430. The experiment in a line: Antiproliferative activity against human GIST430 cells harboring c-KIT exon 11 primary in-frame V560-L576 deletion mutant and exon 13 heterozygous secondary missense V654A mutant assessed as reduction in cell viability by methylene blue staining based assay. It counts as functional.
In the case of `CCN(CC)CCNC(=O)c1c(C)[nH]c(/C=C2\C(=O)Nc3ccc(F)cc32)c1C` [SUNITINIB], the GI50 was found to be 47 nM.

For a further assay, the target named is Mast/stem cell growth factor receptor Kit (Homo sapiens, UniProt P10721). The assay can be described thus: Inhibition of recombinant human N-terminal 6x-His-tagged c-KIT (547 to 935 residues)/(694 to 753 residues deletion) expressed in baculovirus infected Sf9 insect cells assessed as decrease in poly (Glu,Tyr) 4:1 phosphorylation measured after 150 mins in presence of ATP by ADP-glo based luminescence assay.
`CCc1cc(NC(=O)Nc2ccc(-c3cnc(Nc4cc(N5CCN(CCO)CC5)ncn4)s3)cc2)no1`: the IC50 came out at 71 nM.
The same measure, in the same setting: under `CCc1cc(NC(=O)Nc2ccc(-c3cnc(Nc4cc(N5CCN(CC)CC5)nc(C)n4)s3)cc2)no1` stands 97 nM; under `CCc1cc(NC(=O)NCCCc2cnc(Nc3cc(N4CCN(CC)CC4)nc(C)n3)s2)no1`, 50 nM.
Still for that read-out and setting: under `CCc1cc(NC(=O)Nc2ccc(-c3sc(Nc4cc(N5CCN(CC)CC5)ncn4)nc3C)cc2)no1` stands 122 nM; under `CCc1cc(NC(=O)Nc2ccc(-c3cnc(Nc4nc(C)nc(N5CCN(CC)CC5)n4)s3)cc2)no1`, 86 nM.
On the same count and under the same terms, under `CCN1CCN(c2cc(Nc3ncc(-c4ccc(NC(C)=O)cc4)s3)ncn2)CC1` stands 130 nM; under `CCN1CCN(c2cc(Nc3ncc(-c4ccc(NS(=O)(=O)c5ccccc5)cc4)s3)nc(C)n2)CC1`, 54 nM.
Regarding `CCc1cc(NC(=O)N2CC=C(c3cnc(Nc4cc(N5CCN(CC)CC5)nc(C)n4)s3)CC2)no1`, the IC50 stood at 82 nM.
Same read-out and setting: under `CCc1cc(NC(=O)Nc2ccc(-c3csc(Nc4cc(N5CCN(CC)CC5)nc(C)n4)n3)cc2)no1` stands 950 nM.
Still for that read-out and setting: under `CCc1cc(NC(=O)Nc2ccc(-c3cnc(Nc4cc(N5CCC(N)C5)nc(C)n4)s3)cc2)no1` (configuration not stated) stands 15 nM; under `CCc1cc(NC(=O)Nc2ccc(-c3cnc(Nc4cc(N5CCN(CC)CC5)ncn4)s3)cn2)no1`, 43 nM.
For the molecule `CCN1CCN(c2cc(Nc3ncc(-c4ccc(NC(N)=O)cc4)s3)ncn2)CC1`, the IC50 was found to be 98 nM.
Still for that read-out and setting: under `CCc1cc(NC(=O)NCC#Cc2cnc(Nc3cc(N4CCN(CC)CC4)ncn3)s2)no1` stands 38 nM.
On the same count and under the same terms, under `Cc1nc(Nc2ncc(-c3ccc(NC(=O)Nc4ccccc4)cc3)s2)cc(N2CCN(C)CC2)n1` stands 20 nM.

The test system of the next assay is GIST48. The experiment in a line: Antiproliferative activity against human GIST48 cells harboring c-KIT exon 11 homozygous primary missense V560D mutant and exon 17 heterozygous secondary D820A mutant assessed as reduction in cell viability by MTS assay. It counts as functional.
`CCN(CC)CCNC(=O)c1c(C)[nH]c(/C=C2\C(=O)Nc3ccc(F)cc32)c1C` [SUNITINIB]: the GI50 worked out at 2000 nM.

A further assay relates to GIST430. The assay can be described thus: Antitumor activity against human GIST430 cells harboring c-KIT exon 11 primary in-frame V560-L576 deletion mutant and exon 13 heterozygous secondary missense V654A mutant xenografted in NOD-SCID mouse assessed as tumor growth inhibition at 40 mg/kg, po administered for 2 weeks with 2 days rest after day 5 and measured thrice per week up to 21 days during compound dosing. It counts as functional, organism-based.
As for `CCN(CC)CCNC(=O)c1c(C)[nH]c(/C=C2\C(=O)Nc3ccc(F)cc32)c1C` [SUNITINIB], the TGI result is “Active”.

For another assay, the system named is GIST882. The experiment in a line: Antiproliferative activity against human GIST882 cells harboring c-KIT exon 13 homozygous primary K642E mutant assessed as reduction in cell viability by methylene blue staining based assay. It counts as functional.
As to `CCN(CC)CCNC(=O)c1c(C)[nH]c(/C=C2\C(=O)Nc3ccc(F)cc32)c1C` [SUNITINIB], the 50% growth inhibitory concentration (GI50) amounted to 64 nM.

A further assay deals with GISTT1. The assay can be described thus: Antiproliferative activity against human GISTT1 cells harboring heterozygous V560-Y578 deletion mutant assessed as reduction in cell viability by MTS assay. It counts as functional.
For the molecule `CCc1cc(NC(=O)Nc2ccc(-c3cnc(Nc4cc(N5CCN(CCO)CC5)ncn4)s3)cc2)no1`, the GI50 worked out at 3.3 nM.
The same measure, in the same setting: under `CCc1cc(NC(=O)Nc2ccc(-c3cnc(Nc4cc(N5CCN(CC)CC5)nc(C)n4)s3)cc2)no1` stands 3.2 nM.
Still for that read-out and setting: under `CCc1cc(NC(=O)NCCCc2cnc(Nc3cc(N4CCN(CC)CC4)nc(C)n3)s2)no1` stands 10 nM; under `CCc1cc(NC(=O)Nc2ccc(-c3sc(Nc4cc(N5CCN(CC)CC5)ncn4)nc3C)cc2)no1`, 3.3 nM.
Same read-out and setting: under `CCc1cc(NC(=O)Nc2ccc(-c3cnc(Nc4nc(C)nc(N5CCN(CC)CC5)n4)s3)cc2)no1` stands 13 nM; under `CCN1CCN(c2cc(Nc3ncc(-c4ccc(NC(C)=O)cc4)s3)ncn2)CC1`, 25 nM; under `CCN1CCN(c2cc(Nc3ncc(-c4ccc(NS(=O)(=O)c5ccccc5)cc4)s3)nc(C)n2)CC1`, 42 nM.
As to `CCN(CC)CCNC(=O)c1c(C)[nH]c(/C=C2\C(=O)Nc3ccc(F)cc32)c1C` [SUNITINIB], the GI50 amounted to 38 nM.
With `CCc1cc(NC(=O)N2CC=C(c3cnc(Nc4cc(N5CCN(CC)CC5)nc(C)n4)s3)CC2)no1`, the GI50 stood at 4.9 nM.
Still for that read-out and setting: under `CCc1cc(NC(=O)Nc2ccc(-c3csc(Nc4cc(N5CCN(CC)CC5)nc(C)n4)n3)cc2)no1` stands above 1000 nM.
The same measure, in the same setting: under `CCc1cc(NC(=O)Nc2ccc(-c3cnc(Nc4cc(N5CCC(N)C5)nc(C)n4)s3)cc2)no1` (configuration not stated) stands 6.4 nM.
On the same count and under the same terms, under `CCc1cc(NC(=O)Nc2ccc(-c3cnc(Nc4cc(N5CCN(CC)CC5)ncn4)s3)cn2)no1` stands 1 nM; under `CCN1CCN(c2cc(Nc3ncc(-c4ccc(NC(N)=O)cc4)s3)ncn2)CC1`, 86 nM; under `CCc1cc(NC(=O)NCC#Cc2cnc(Nc3cc(N4CCN(CC)CC4)ncn3)s2)no1`, 9.9 nM.
For the molecule `Cc1nc(Nc2ncc(-c3ccc(NC(=O)Nc4ccccc4)cc3)s2)cc(N2CCN(C)CC2)n1`, the GI50 was determined as 5.4 nM.

Another assay has as its system GIST430. The experiment in a line: Antitumor activity against human GIST430 cells harboring c-KIT exon 11 primary in-frame V560-L576 deletion mutant and exon 13 heterozygous secondary missense V654A mutant xenografted in NOD-SCID mouse assessed as tumor regression at 40 mg/kg, po administered for 2 weeks with 2 days rest after day 5 and measured thrice per week up to 21 days during compound dosing. It counts as functional, organism-based.
Take `CCN(CC)CCNC(=O)c1c(C)[nH]c(/C=C2\C(=O)Nc3ccc(F)cc32)c1C` [SUNITINIB]: the outcome was inactive.

The test system of another assay is GIST430. The experiment in a line: Antiproliferative activity against human GIST430 cells harboring c-KIT exon 11 primary in-frame V560-L576 deletion mutant and exon 13 heterozygous secondary missense V654A mutant assessed as reduction in cell viability by MTS assay. It counts as functional.
As to `CCN(CC)CCNC(=O)c1c(C)[nH]c(/C=C2\C(=O)Nc3ccc(F)cc32)c1C` [SUNITINIB], the GI50 is 47 nM.

In the next assay the test system is GIST48. The experiment in a line: Antiproliferative activity against human GIST48 cells harboring c-KIT exon 11 homozygous primary missense V560D mutant and exon 17 heterozygous secondary D820A mutant assessed as reduction in cell viability by methylene blue staining based assay. It counts as functional.
For `CCN(CC)CCNC(=O)c1c(C)[nH]c(/C=C2\C(=O)Nc3ccc(F)cc32)c1C` [SUNITINIB], the GI50 was 2000 nM.
